Source: patent publication US20230002373A1, “COMPOUNDS AND COMPOSITIONS FOR TREATING CONDITIONS ASSOCIATED WITH STING ACTIVITY” (IFM Due, Inc., priority 2019, published 2023)

Molecular target: T1, hSTING (Homo sapiens, UniProt Q86WV6, G230A/H232R/R293Q/R71H)
T1 construct: host or cells: THP1-Dual KO-IFNAR2 cells
Assay: STING reporter assay (luciferase) in THP1-Dual KO-IFNAR2 cells stimulated with 2′3′cGAMP
Format: cell-based
Settings: 15 μM 2′3′cGAMP, 24 h
Experimental: STING pathway activation by the compounds described herein was measured using THP1-Dual™ cells (KO-IFNAR2).
THP1-Dual™ KO-IFNAR2 Cells (obtained from invivogen) were maintained in RPMI, 10% FCS, 5 ml P/S, 2 mM L-glut, 10 mM Hepes, and 1 mM sodium pyruvate. Compounds were spotted in empty 384 well tissue culture plates (Greiner 781182) by Echo for a final concentration of 0.0017-100 μM. Cells were plated into the TC plates […], 2×10E6 cells/mL. For activation with STING ligand, 2′3′cGAMP (MW 718.38, obtained from Invivogen), was prepared in Optimem media.
The following solutions were prepared for each 1×384 plate: • Solution A: 2 mL Optimem with one of the following stimuli: • 60 μL of 10 mM 2′3′cGAMP->150 μM stock • Solution B: 2 mL Optimem with 60 μL Lipofectamine 2000->Incubate 5 min at RT
2 mL of solution A and 2 ml Solution B was mixed and incubated for 20 min at room temperature (RT). 20 uL of transfection solution (A+B) was added on top of the plated cells, with a final 2′3′cGAMP concentration of 15 μM. The plates were then centrifuged immediately at 340 g for 1 minute, after which they were incubated at 37° C., 5% CO2, >98% humidity for 24 h. Luciferase reporter activity was then measured. EC50 values were calculated by using standard methods known in the art.
Luciferase reporter assay: 10 μL of supernatant from the assay was transferred to white 384-plate with flat bottom and squared wells. One pouch of QUANTI-Luc™ Plus was dissolved in 25 mL of water. 100 μL of QLC Stabilizer per 25 mL of QUANTI-Luc™ Plus solution was added. 50 μL of QUANTI-Luc™ Plus/QLC solution per well was then added. Luminescence was measured on a Platereader (e.g., Spectramax I3X (Molecular Devices GF3637001)).
Luciferase reporter activity was then measured. EC50 values were calculated by using standard methods known in the art.

T1 sequence (Q86WV6 whole entry R71H/G230A/H232R/R293Q): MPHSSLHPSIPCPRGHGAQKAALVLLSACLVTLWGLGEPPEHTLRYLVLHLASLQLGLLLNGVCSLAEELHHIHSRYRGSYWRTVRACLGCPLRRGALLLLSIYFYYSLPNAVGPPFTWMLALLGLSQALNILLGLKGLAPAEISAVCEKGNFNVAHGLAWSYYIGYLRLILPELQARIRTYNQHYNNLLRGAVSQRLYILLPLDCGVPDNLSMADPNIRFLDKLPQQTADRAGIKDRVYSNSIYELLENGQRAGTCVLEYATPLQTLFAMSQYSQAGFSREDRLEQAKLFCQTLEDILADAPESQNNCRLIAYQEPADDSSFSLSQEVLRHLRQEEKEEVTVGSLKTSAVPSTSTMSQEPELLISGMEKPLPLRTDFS

Row | EC50 (class symbols) [nM] | EC50 (numeric bounds) [nM] | SMILES
1 | 200 to 1000 | – | Cc1ccc(CNC(=O)C(=O)Nc2c[nH]c3ccncc23)cc1C(F)(F)F [Compound 119, N^1-(4-methyl-3-(trifluoromethyl)benzyl)-N^2-(1H-pyrrolo[3,2-c]pyridin-3-yl)oxalamide]
2 | 200 to 1000 | – | O=C(NCc1ccc(F)c(OC(F)(F)F)c1)C(=O)Nc1c[nH]c2ccncc12 [Compound 148, N1-(4-fluoro-3-(trifluoromethoxy)-benzyl)-N2-(1H-pyrrolo[3,2-c]pyridin-3-yl)oxalamide]
3 | 200 to 1000 | – | O=C(NCc1ccc(Cl)cc1C(F)(F)F)C(=O)Nc1c[nH]c2ccncc12 [Compound 167, N1-(4-chloro-2-(trifluoromethyl)-benzyl)-N2-(1H-pyrrolo[3,2-c]pyridin-3-yl)oxalamide]
4 | 200 to 1000 | – | O=C(NCCc1ccc(C(F)(F)F)cc1)C(=O)Nc1c[nH]c2ccncc12 [Compound 153, N1-(1H-pyrrolo[3,2-c]pyridin-3-yl)-N2-(4-(trifluoromethyl)-phenethyl)-oxalamide]
5 | 1000 to 5000 | – | O=C(Nc1ccc(C(F)(F)F)cc1)C(=O)Nc1c[nH]c2ncc(F)cc12 [Compound 125]
6 | 5000 to 100000 | – | Cc1ccc(OCCNC(=O)C(=O)Nc2c[nH]c3ccncc23)cc1C [Compound 157, N1-(2-(3,4-dimethylphenoxy)ethyl)-N2-(1H-pyrrolo[3,2-c]pyridin-3-yl)oxalamide]
7 | 5000 to 100000 | – | O=C(Nc1c[nH]c2ncc(F)cc12)C(=O)N[C@H]1CCC2(CCCC2)C1 (single isomer, unassigned) [Compound 199]
8 | 200 to 1000 | – | COc1ccc(CNC(=O)C(=O)Nc2c[nH]c3ccncc23)cc1C(F)(F)F [Compound 165, N1-(4-methoxy-3-(trifluoromethyl)-benzyl)-N2-(1H-pyrrolo[3,2-c]pyridin-3-yl)oxalamide]
9 | – | > 30000 | O=C(Nc1c[nH]c2cccnc12)C(=O)NC(c1ccc(F)cc1)C1CC1 (centres unmarked) [Compound 135, N1-(cyclopropyl(4-fluorophenyl)methyl)-N2-(1H-pyrrolo[3,2-b]pyridin-3-yl)oxalamide]
10 | 200 to 1000 | – | O=C(Nc1ccc(C2CCCCC2)cn1)C(=O)Nc1c[nH]c2ccc(Br)nc12 [Compound 210]
11 | 200 to 1000 | – | Cc1ccc(CNC(=O)C(=O)Nc2c[nH]c3ccc(Br)nc23)cc1C(F)(F)F [Compound 128]
12 | 5000 to 100000 | – | Cc1cc(F)c(Cl)cc1NC(=O)C(=O)Nc1c[nH]c2cccnc12 [Compound 136, N1-(5-chloro-4-fluoro-2-methylphenyl)-N2-(1H-pyrrolo[3,2-b]pyridin-3-yl)oxalamide]
13 | 1000 to 5000 | – | C[C@@H](NC(=O)C(=O)Nc1c[nH]c2c(F)cncc12)c1ccc(C(F)(F)F)cc1 [Compound 205]
14 | 200 to 1000 | – | Cc1cc(NC(=O)C(=O)Nc2c[nH]c3ncc(F)cc23)cc(C(F)(F)F)c1 [Compound 101, N^1-(5-fluoro-1H-pyrrolo[2,3-b]pyridin-3-yl)-N^2-(3-methyl-5-(trifluoromethyl)phenyl)oxalamide]
15 | 1000 to 5000 | – | Cc1cc(CNC(=O)C(=O)Nc2c[nH]c3cnccc23)ccc1C(F)(F)F [Compound 213]
16 | 200 to 1000 | – | Cc1cc(NC(=O)C(=O)Nc2c[nH]c3ccncc23)cc(C(F)(F)F)c1 [Compound 115, N^1-(3-methyl-5-(trifluoromethyl)phenyl)-N^2-(1H-pyrrolo[3,2-c]pyridin-3-yl)oxalamide]
17 | 1000 to 5000 | – | O=C(NCc1ccc(-c2ccccc2C(F)(F)F)cc1)C(=O)Nc1c[nH]c2cccnc12 [Compound 110, N^1-(1H-pyrrolo[3,2-b]pyridin-3-yl)-N^2-((2′-(trifluoromethyl)-[1,1′-biphenyl]-4-yl)methyl)oxalamide]
18 | 1000 to 5000 | – | O=C(NCC12CC3CC(CC(C3)C1)C2)C(=O)Nc1c[nH]c2ccncc12 [Compound 124, N^1-(adamantan-1-ylmethyl)-N^2-(1H-pyrrolo[3,2-c]pyridin-3-yl)oxalamide]
19 | – | > 30000 | O=C(NCCc1cccc(C(F)(F)F)c1)C(=O)Nc1c[nH]c2cccnc12 [Compound 149, N1-(1H-pyrrolo[3,2-b]pyridin-3-yl)-N2-(3-(trifluoromethyl)phenethyl)oxalamide]

Row | EC50 (class symbols) [nM] | EC50 (numeric bounds) [nM] | SMILES
20 | 1000 to 5000 | – | O=C(Nc1cccc(C(F)(F)F)c1)C(=O)Nc1c[nH]c2ccncc12 [Compound 114, N^1-(1H-pyrrolo[3,2-c]pyridin-3-yl)-N^2-(3-(trifluoromethyl)phenyl)oxalamide]
21 | – | > 30000 | O=C(NCC1CCC(F)(F)CC1)C(=O)Nc1c[nH]c2ccncc12 [Compound 160, N1-((4,4-difluorocyclohexyl)-methyl)-N2-(1H-pyrrolo[3,2-c]pyridin-3-yl)oxalamide]
22 | 5000 to 100000 | – | CC(CNC(=O)C(=O)Nc1c[nH]c2cccnc12)Oc1ccc(C(F)(F)F)cc1 (centres unmarked) [Compound 137, N1-(1H-pyrrolo[3,2-b]pyridin-3-yl)-N2-(2-(4-(trifluoromethyl)phenoxy)propyl)oxalamide]
23 | – | > 30000 | O=C(NCC(F)(F)c1ccccc1)C(=O)Nc1c[nH]c2ccncc12 [Compound 163, N1-(2,2-difluoro-2-phenylethyl)-N2-(1H-pyrrolo[3,2-c]pyridin-3-yl)oxalamide]
24 | 1000 to 5000 | – | O=C(Nc1c[nH]c2ncc(F)cc12)C(=O)N[C@H]1CCCC2(CCCCC2)C1 (single isomer, unassigned) [Compound 196, N-[5-fluoro-1H-pyrrolo[2,3-b]pyridin-3-yl]-N′-[(2S or 2R)-spiro[5.5]undecan-2-yl]ethanediamide]
25 | 200 to 1000 | – | Cc1c(CNC(=O)C(=O)Nc2c[nH]c3cccnc23)cccc1C(F)(F)F [Compound 138, N1-(2-methyl-3-(trifluoromethyl)benzyl)-N2-(1H-pyrrolo[3,2-b]pyridin-3-yl)oxalamide]
26 | 5000 to 100000 | – | O=C(Nc1c[nH]c2ncc(F)cc12)C(=O)N[C@@H]1CCC2(CCCC2)C1 (single isomer, unassigned) [Compound 200]
27 | 1000 to 5000 | – | COc1ccc(CNC(=O)C(=O)Nc2c[nH]c3cccnc23)cc1C(F)(F)F [Compound 144, N1-(4-methoxy-3-(trifluoromethyl)benzyl)-N2-(1H-pyrrolo[3,2-b]pyridin-3-yl)oxalamide]
28 | 1000 to 5000 | – | CC(CNC(=O)C(=O)Nc1c[nH]c2ccncc12)Oc1ccc(C(F)(F)F)cc1 (centres unmarked) [Compound 164, N1-(1H-pyrrolo[3,2-c]pyridin-3-yl)-N2-(2-(4-(trifluoromethyl)-phenoxy)propyl)-oxalamide]
29 | 1000 to 5000 | – | O=C(NCc1cccc2c1OC(F)(F)O2)C(=O)Nc1c[nH]c2ccncc12 [Compound 158, N1-((2,2-difluorobenzo-[d][1,3]dioxol-4-yl)methyl)-N2-(1H-pyrrolo[3,2-c]pyridin-3-yl)oxalamide]
30 | 200 to 1000 | – | Cc1cc(NC(=O)C(=O)Nc2c[nH]c3cccnc23)cc(C(F)(F)F)c1 [Compound 107, N^1-(3-methyl-5-(trifluoromethyl)phenyl)-N^2-(1H-pyrrolo[3,2-b]pyridin-3-yl)oxalamide]
31 | 200 to 1000 | – | O=C(NCc1ccc(OC(F)(F)F)c(Cl)c1)C(=O)Nc1c[nH]c2ccncc12 [Compound 211]
32 | 200 to 1000 | – | Cc1ccc(CNC(=O)C(=O)Nc2c[nH]c3cccnc23)cc1C(F)(F)F [Compound 109, N^1-(4-methyl-3-(trifluoromethyl)benzyl)-N^2-(1H-pyrrolo[3,2-b]pyridin-3-yl)oxalamide]
33 | – | > 30000 | O=C(NCCc1ncc(C(F)(F)F)cc1Cl)C(=O)Nc1c[nH]c2cccnc12 [Compound 139, N1-(2-(3-chloro-5-(trifluoromethyl)pyridin-2-yl)ethyl)-N2-(1H-pyrrolo[3,2-b]pyridin-3-yl)oxalamide]
34 | 1000 to 5000 | – | Cc1ccc2[nH]cc(NC(=O)C(=O)Nc3cnc(N4CCC(F)(F)CC4)c(Cl)c3)c2n1 [Compound 195, N-(5-chloro-6-(4,4-difluoropiperidin-1-yl)pyridin-3-yl)-N′-(5-methyl-1H-pyrrolo[3,2-b]pyridin-3-yl)oxalamide]
35 | 5000 to 100000 | – | O=C(NCCC1CCC(F)(F)CC1)C(=O)Nc1c[nH]c2ccncc12 [Compound 122, N^1-(2-(4,4-difluorocyclo-hexyl)ethyl)-N^2-(1H-pyrrolo[3,2-c]pyridin-3-yl)oxalamide]
36 | 1000 to 5000 | – | O=C(Nc1c[nH]c2ccncc12)C(=O)NC1CCC2(CCCCC2)CC1 [Compound 121, N^1-(1H-pyrrolo[3,2-c]pyridin-3-yl)-N^2-(spiro[5.5]undecan-3-yl)oxalamide]
37 | 1000 to 5000 | – | CC(C)n1cc(-c2ccc3[nH]cc(NC(=O)C(=O)Nc4ccc(C5CCCCC5)cn4)c3n2)cn1 [Compound 206, N-(5-cyclohexylpyridin-2-yl)-N′-(5-(1-isopropyl-1H-pyrazol-4-yl)-1H-pyrrolo[3,2-b]pyridin-3-yl)oxalamide]
38 | 1000 to 5000 | – | O=C(NCc1cccc(OC(F)(F)F)c1)C(=O)Nc1c[nH]c2ccncc12 [Compound 173, N1-(1H-pyrrolo[3,2-c]pyridin-3-yl)-N2-(3-(trifluoromethoxy)-benzyl)oxalamide]
